Reference: ChEMBL document CHEMBL2069292, “Dammarane glycosides from the root of Machilus yaoshansis” (J Nat Prod, 2012)
The source made the active and inactive calls.

Assays:
[1] = biological target: T1, Tyrosine-protein phosphatase non-receptor type 1 (Homo sapiens) (UniProt P18031); experiment: Inhibition of human PTP1B at 10 uM
T1 sequence (whole entry): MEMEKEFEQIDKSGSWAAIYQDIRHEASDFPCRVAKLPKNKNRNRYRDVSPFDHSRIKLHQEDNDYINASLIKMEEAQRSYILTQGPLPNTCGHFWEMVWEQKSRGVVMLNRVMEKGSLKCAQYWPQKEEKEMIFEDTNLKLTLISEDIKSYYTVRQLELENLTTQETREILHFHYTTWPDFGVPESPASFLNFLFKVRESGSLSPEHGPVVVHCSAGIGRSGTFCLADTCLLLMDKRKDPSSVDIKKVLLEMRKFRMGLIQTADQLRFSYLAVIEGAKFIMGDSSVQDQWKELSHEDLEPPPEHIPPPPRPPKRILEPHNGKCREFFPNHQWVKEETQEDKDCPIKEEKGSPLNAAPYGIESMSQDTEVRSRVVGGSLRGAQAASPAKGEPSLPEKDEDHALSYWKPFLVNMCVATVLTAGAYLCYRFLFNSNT

[2] = test system: Peritoneal macrophage cell; experiment: Inhibition of LPS-induced TNFalpha secretion in C57BL/6J mouse peritoneal macrophages at 10 uM after 24 hrs; assay type: functional, cell-based
Bel-7402 = experiment: Cytotoxicity against human Bel7402 cells at 10 uM after 96 hrs by MTT assay; assay type: functional, cell-based
A2780 = experiment: Cytotoxicity against human A2780 cells at 10 uM after 96 hrs by MTT assay; assay type: functional, cell-based
HCT-8 = experiment: Cytotoxicity against human HCT8 cells at 10 uM after 96 hrs by MTT assay; assay type: functional, cell-based
BGC-823 = experiment: Cytotoxicity against human BGC823 cells at 10 uM after 96 hrs by MTT assay; assay type: functional, cell-based
A549 = experiment: Cytotoxicity against human A549 cells at 10 uM after 96 hrs by MTT assay; assay type: functional, cell-based

CC(C)=C[C@@H]1C[C@](O)([C@H]2CC[C@]3(C)[C@@H]2CC[C@@H]2[C@@]4(C)CC[C@H](O[C@@H]5O[C@H](CO)[C@@H](O)[C@H](O[C@@H]6OC[C@@H](O)[C@H](O)[C@H]6O)[C@H]5O)C(C)(C)[C@@H]4CC[C@]23C)C(=O)O1
inactive: inhibition [1] | inhibition [2] | Activity (Bel-7402) | Activity (A2780) | Activity (HCT-8) | Activity (BGC-823) | Activity (A549)

CC(C)=C[C@H]1C[C@](O)([C@H]2CC[C@]3(C)[C@@H]2CC[C@@H]2[C@@]4(C)CC[C@H](O[C@@H]5OC[C@H](O)[C@H](O[C@@H]6OC[C@@H](O)[C@H](O)[C@H]6O)[C@H]5O[C@@H]5O[C@@H](C)[C@H](O)[C@@H](O)[C@H]5O)C(C)(C)[C@@H]4CC[C@]23C)C(=O)O1
inactive: inhibition [1] | inhibition [2] | Activity (Bel-7402) | Activity (A2780) | Activity (HCT-8) | Activity (BGC-823) | Activity (A549)

CC(C)=CCC[C@@](O)(CO[C@@H]1O[C@H](CO[C@@H]2O[C@H](CO)[C@@H](O)[C@H](O)[C@H]2O)[C@@H](O)[C@H](O)[C@H]1O)[C@H]1CC[C@]2(C)[C@@H]1CC[C@@H]1[C@@]3(C)CC[C@H](O[C@@H]4O[C@H](CO)[C@@H](O)[C@H](O[C@@H]5OC[C@@H](O)[C@H](O)[C@H]5O)[C@H]4O[C@@H]4O[C@@H](C)[C@H](O)[C@@H](O)[C@H]4O)C(C)(C)[C@@H]3CC[C@]12C
inactive: inhibition [1] | inhibition [2] | Activity (Bel-7402) | Activity (A2780) | Activity (HCT-8) | Activity (BGC-823) | Activity (A549)

CC(C)=CCC[C@@](O)(CO)[C@H]1CC[C@]2(C)[C@@H]1CC[C@@H]1[C@@]3(C=O)CC[C@H](O[C@@H]4OC[C@H](O)[C@H](O[C@@H]5OC[C@@H](O)[C@H](O)[C@H]5O)[C@H]4O)C(C)(C)[C@@H]3CC[C@]12C
inactive: inhibition [1] | inhibition [2] | Activity (Bel-7402) | Activity (A2780) | Activity (HCT-8) | Activity (BGC-823) | Activity (A549)

CC(C)=CCC[C@@](O)(CO)[C@H]1CC[C@]2(C)[C@@H]1CC[C@@H]1[C@@]3(C)CC[C@H](O[C@@H]4OC[C@H](O)[C@H](O[C@@H]5OC[C@@H](O)[C@H](O)[C@H]5O)[C@H]4O[C@@H]4O[C@@H](C)[C@H](O)[C@@H](O)[C@H]4O)C(C)(C)[C@@H]3CC[C@]12C
inactive: inhibition [1] | inhibition [2] | Activity (Bel-7402) | Activity (A2780) | Activity (HCT-8) | Activity (BGC-823) | Activity (A549)

CC(C)=CCC[C@@](O)(CO[C@@H]1O[C@H](CO)[C@@H](O)[C@H](O)[C@H]1O)[C@H]1CC[C@]2(C)[C@@H]1CC[C@@H]1[C@@]3(C)CC[C@H](O[C@@H]4OC[C@H](O)[C@H](O[C@@H]5OC[C@@H](O)[C@H](O)[C@H]5O)[C@H]4O[C@@H]4O[C@@H](C)[C@H](O)[C@@H](O)[C@H]4O)C(C)(C)[C@@H]3CC[C@]12C
inactive: inhibition [1] | inhibition [2] | Activity (Bel-7402) | Activity (A2780) | Activity (HCT-8) | Activity (BGC-823) | Activity (A549)

CC(=O)OC[C@H]1O[C@@H](O[C@H]2CC[C@]3(C)[C@H]4CC[C@@H]5[C@@H]([C@](O)(CO)CCC=C(C)C)CC[C@@]5(C)[C@]4(C)CC[C@H]3C2(C)C)[C@H](O[C@@H]2O[C@@H](C)[C@H](O)[C@@H](O)[C@H]2O)[C@@H](O[C@@H]2OC[C@@H](O)[C@H](O)[C@H]2O)[C@@H]1O
inactive: inhibition [1] | inhibition [2] | Activity (Bel-7402) | Activity (A2780) | Activity (HCT-8) | Activity (BGC-823) | Activity (A549)

CC(C)=C[C@@H]1C[C@](O)([C@H]2CC[C@]3(C)[C@@H]2CC[C@@H]2[C@@]4(C)CC[C@H](O[C@@H]5OC[C@H](O)[C@H](O[C@@H]6OC[C@@H](O)[C@H](O)[C@H]6O)[C@H]5O[C@@H]5O[C@@H](C)[C@H](O)[C@@H](O)[C@H]5O)C(C)(C)[C@@H]4CC[C@]23C)C(=O)O1
inactive: inhibition [1] | inhibition [2] | Activity (Bel-7402) | Activity (A2780) | Activity (HCT-8) | Activity (BGC-823) | Activity (A549)

CC(C)=CCC[C@@](O)(CO[C@@H]1O[C@H](CO)[C@@H](O)[C@H](O)[C@H]1O)[C@H]1CC[C@]2(C)[C@@H]1CC[C@@H]1[C@@]3(C=O)CC[C@H](O[C@@H]4O[C@H](CO)[C@@H](O)[C@H](O[C@@H]5OC[C@@H](O)[C@H](O)[C@H]5O)[C@H]4O[C@@H]4O[C@@H](C)[C@H](O)[C@@H](O)[C@H]4O)C(C)(C)[C@@H]3CC[C@]12C
inactive: inhibition [1] | inhibition [2] | Activity (Bel-7402) | Activity (A2780) | Activity (HCT-8) | Activity (BGC-823) | Activity (A549)
